The text below walks through data of PubChem BioAssay (NCI).

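These data come from cells grown in 96-well plates and exposed to compound for 48 hours at five concentrations. Here, GI50 denotes the concentration required for 50% inhibition of growth. The concentration for full growth arrest is given as TGI.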

Among the test systems are HCT-15 colon; SF-295 CNS; HT29 colon; NCI-H460 lung; OVCAR-5 ovarian; U251 CNS; HOP-62 NSCLC; HS 578T breast; SR leukemia; BT-549 breast.
Common to all, as to assay: growth of human tumour cells (NCI), 48 h

As for `CSc1snc2sc3c(Cl)nnnc3c12`, the TGI is 24.9 µM with HCT-15 colon; 32 µM with SF-295 CNS; 19.6 µM in the assay on HT29 colon; 32.8 µM in the assay on NCI-H460 lung; 31 µM in the assay on OVCAR-5 ovarian; 28.6 µM in the assay on U251 CNS. The same compound displayed a TGI in the assay on HOP-62 NSCLC of 31.9 µM.
In the case of `CN(C)CCNC(=O)Cn1cnc2cccc([N+](=O)[O-])c2c1=O`, the TGI in the assay on HCT-15 colon, with HS 578T breast, in the assay with SF-295 CNS, with HT29 colon, in the assay on NCI-H460 lung and with OVCAR-5 ovarian was more than 100 µM each time. For the same compound, the TGI with SR leukemia, with U251 CNS and in the assay with HOP-62 NSCLC was more than 100 µM in each case.
On to `O=C(O)c1c(=O)cccc2ssc12`, for which the GI50 was 1.73 µM in the assay on HCT-15 colon; 2.43 µM with HS 578T breast; 1.67 µM in the assay with SF-295 CNS; 1.68 µM in the assay with BT-549 breast; 1.89 µM in the assay with HT29 colon; 1.96 µM in the assay on NCI-H460 lung. Also, the figures for the GI50 in the assay with OVCAR-5 ovarian, in the assay on U251 CNS and in the assay on HOP-62 NSCLC were 1.71 µM, 1.74 µM and 1.81 µM, respectively. In addition, the TGI amounted to 3.52 µM with HCT-15 colon; 5.54 µM in the assay with HS 578T breast; 3.17 µM in the assay on SF-295 CNS; 3.12 µM in the assay with BT-549 breast; 3.64 µM with HT29 colon; 4.13 µM in the assay on NCI-H460 lung. For the same compound, the TGI in the assay with OVCAR-5 ovarian is 3.45 µM; in the assay with U251 CNS, 3.16 µM; with HOP-62 NSCLC it was 3.44 µM.
Regarding `O=C1/C(=C/c2ccc(Cl)cc2)CCC/C1=C\c1ccc(Cl)cc1`, the GI50 in the assay with HCT-15 colon was 3.39 µM; with HS 578T breast, 3.43 µM; with SF-295 CNS, 3.83 µM; in the assay with HT29 colon, 2.7 µM; with NCI-H460 lung, 6.93 µM; in the assay with OVCAR-5 ovarian it was more than 100 µM. Besides, the values for the GI50 with SR leukemia, in the assay on U251 CNS and with HOP-62 NSCLC were 2.77 µM, 2.66 µM and 8.1 µM, respectively. The TGI is more than 100 µM in the assay with HCT-15 colon; more than 100 µM in the assay on HS 578T breast; more than 100 µM with SF-295 CNS; 6.37 µM in the assay with HT29 colon; more than 100 µM with NCI-H460 lung; more than 100 µM in the assay with OVCAR-5 ovarian. The TGI was more than 100 µM with SR leukemia, 7.88 µM with U251 CNS and more than 100 µM in the assay with HOP-62 NSCLC.
Take `CCOC(=O)C1=C(C)N(Cc2ccc(Cl)cc2Cl)C2(O)C=CC(=O)C3=C(O)c4ccccc4C(=O)C312` (stereo not given): the GI50 is 1.82 µM in the assay with HCT-15 colon; 16.1 µM with HS 578T breast; 3.07 µM in the assay on SF-295 CNS; 21.6 µM in the assay with BT-549 breast; 5.04 µM with HT29 colon; 5.55 µM in the assay with NCI-H460 lung. Besides, the figures for the GI50 in the assay on OVCAR-5 ovarian, with U251 CNS and with HOP-62 NSCLC were 9.59 µM, 3.53 µM and 3.56 µM, respectively. For the same compound, the TGI was 13.5 µM with HCT-15 colon; 96.3 µM in the assay with HS 578T breast; 14.9 µM in the assay on SF-295 CNS; more than 100 µM in the assay on BT-549 breast; more than 100 µM in the assay with HT29 colon; 43.2 µM in the assay with NCI-H460 lung. For the same compound, the TGI in the assay on OVCAR-5 ovarian is 30.1 µM; with U251 CNS, 15.8 µM; in the assay on HOP-62 NSCLC it was 15 µM.
As to `COc1ccc2oc(C(=O)O)c3c2c1CCC3CCC(=O)O` (stereo not given), the TGI in the assay on SF-295 CNS, with HT29 colon, in the assay on NCI-H460 lung, in the assay on OVCAR-5 ovarian, with SR leukemia and in the assay on U251 CNS was more than 100 µM each time. The compound further had a TGI in the assay on HOP-62 NSCLC of more than 1 µM.
For the compound `CCCCCCCCCC(=O)OCC1OC(n2cc(F)c(=O)[nH]c2=O)C(NC(=O)OCc2ccccc2)C(OC(=O)CCCCCCCCC)C1O` (stereo not given), the TGI was more than 100 µM with HCT-15 colon; more than 100 µM in the assay on SF-295 CNS; 35 µM in the assay with HT29 colon; 81.2 µM in the assay on SR leukemia; 30.3 µM with U251 CNS; more than 100 µM with HOP-62 NSCLC.
As for `COc1ccc(/C=C2\CCC(CCN(C)C)(C3=CCCC3)C2=O)cc1Br` (stereo not given), the TGI with HCT-15 colon amounted to 15.5 µM; in the assay with SF-295 CNS it was 13.7 µM; with HT29 colon, 7.14 µM; in the assay on NCI-H460 lung it was 25.6 µM; in the assay with OVCAR-5 ovarian, 27.1 µM; in the assay on SR leukemia, 5.06 µM. The figures for the TGI in the assay on U251 CNS and in the assay on HOP-62 NSCLC were 19 µM and 30.9 µM, respectively.
For the compound `Nc1ccc(-c2cccs2)cc1NC(=O)c1ccc(CCCC(=O)Nc2ccc(C3CC3N)cc2)cc1` (stereo not given), the GI50 in the assay with HCT-15 colon is 5.99 µM; in the assay on HS 578T breast it was 7.93 µM; with BT-549 breast it was 2.69 µM; with U251 CNS, 1.6 µM. Besides, the TGI in the assay with HCT-15 colon was more than 100 µM; in the assay on HS 578T breast, more than 100 µM; with BT-549 breast, more than 100 µM; in the assay with U251 CNS it was 3.16 µM.
With `C=C1CC2CC(O)CC(C1)C2` (stereo not given), the TGI in the assay with SF-295 CNS, in the assay with HT29 colon, in the assay with NCI-H460 lung, with OVCAR-5 ovarian, in the assay on SR leukemia and with U251 CNS was more than 100 µM throughout. The TGI with HOP-62 NSCLC was more than 100 µM.
With `O=C1OC(=O)C2CCCC3CCCC1C32` (stereo not given), the TGI in the assay on HCT-15 colon, with HS 578T breast, in the assay with SF-295 CNS, in the assay on BT-549 breast, in the assay with HT29 colon and with NCI-H460 lung was more than 100 µM in each case. Also, the TGI in the assay with OVCAR-5 ovarian, in the assay on U251 CNS and in the assay on HOP-62 NSCLC was more than 100 µM in each case.
Take `Cc1ccc(C(=O)/C=C/c2cccc([N+](=O)[O-])c2)cc1`: the TGI with HCT-15 colon was more than 64 µM; with SF-295 CNS it was more than 100 µM; in the assay on HT29 colon it was more than 66.1 µM; in the assay with NCI-H460 lung, more than 100 µM; with SR leukemia, 51.1 µM; in the assay with U251 CNS, more than 55.5 µM. Further, the TGI in the assay with HOP-62 NSCLC was more than 100 µM.
In the case of `CCCCNC(=O)C1C2CCC(O2)C1C(=O)O` (stereo not given), the TGI in the assay with HCT-15 colon is 70.3 µM; with SF-295 CNS, 74.7 µM; with HT29 colon, 55.4 µM; with NCI-H460 lung, more than 100 µM; in the assay on OVCAR-5 ovarian, more than 100 µM; in the assay on SR leukemia it was 95.4 µM. Further, the figures for the TGI with U251 CNS and in the assay on HOP-62 NSCLC were 29 µM and more than 100 µM, respectively.
